“And” between values parts separate entries of the source, which are not always exact repeats. Equal entries are not always repeated. Where two headings read alike, the source gives them in different places.
Columns and labels:
Format in all cases: cell-based, human
LO2 cells = test: MTT cell viability assay, normal hepatic LO2 cells; conditions: read-out: IC50 LO2
Experimental: (§1) The human breast cancer cell lines MCF-7, MDA-MB-231, human hepatocellular liver cell line HepG2 and human lung carcinoma epithelial cells A549 were purchased from American Type Culture Collection (ATCC, Manassas, VA, USA). Normal human hepatic LO2 cells were obtained from the Institute of Cell Biology, Academic Sinica (Shanghai, China). The cells were grown in an atmosphere of 5% CO2 at 37 °C in RPMI 1640 medium supplemented with 10% fetal bovine serum, 100 U/mL penicillin and […] streptomycin.
(§2) The viability of cells was measured by a colorimetric MTT assay. Briefly, 1 × 10^4 cells/well in 96-well microplates were exposed to different concentration of polyynes and their acetylated derivatives respectively for 24 h incubation, following addition of 20 μL MTT solution (4 mg/mL) to each well for another 4 h incubation at 37 °C. Finally, the medium was removed and replaced with 100 μL dimethyl sulfoxide which was added to dissolve the dye crystal presented in cells. The absorbance was recorded at 570 nm using a microplate reader (1420 Multilabel counter victor^3, Perkin-Elmer, Waltham, MA, USA). The results were expressed as ratio of absorbance between treatments and control cells (solvent vehicle set at 100%). Four replicate wells were tested per assay which was repeated three times.

A549 cells = test: MTT cell viability assay, A549 cells; conditions: for IC50: read-out: IC50 A549; for antiproliferative effect on A549 cells (in words): concentrations 1–300 µM
Experimental: as §1, §2

MCF-7 cells = test: MTT cell viability assay, MCF-7 cells; conditions: for IC50: read-out: IC50 MCF-7; for antiproliferative effect on MCF-7 cells (in words): concentrations 1–300 µM
Experimental: as §1, §2

MDA-MB-231 cells [1] = test: MTT cell viability assay, MDA-MB-231 cells; conditions: for IC50: read-out: IC50 MDA-MB-231
Experimental: as §1, §2

HepG2 cells = test: MTT cell viability assay, HepG2 cells; conditions: for IC50: read-out: IC50 HepG2; for antiproliferative effect on HepG2 cells (in words): concentrations 1–300 µM
Experimental: as §1, §2

MDA-MB-231 cells [2] = test: JC-1 mitochondrial membrane potential; conditions: high concentration (OHR-1 15 μM, OHR-2 5 μM, OHR-3 10 μM, OHR-5 15 μM), 24 h
Experimental: The MDA-MB-231 cells were treated with OHR-1, -2, -3 and -5 for 24 h in a humidified atmosphere (37 °C with 5% CO2). The cells were collected and responded in 0.5 mL culture medium with JC-1 dye (1 μg/mL) for 20 min at 37 °C in dark. Fluorescence was monitored by both flow cytometry (BD Biosciences, San Jose, CA, USA) and fluorescence microscope. The Δψm were indicated by the rato of […] fluorescence intensity. The data were expressed as ratio of Δψm between treatments and control cells (solvent vehicle set at 100%).

MDA-MB-231 cells [3] = test: Cell cycle analysis by PI staining and flow cytometry; conditions: 24 h; for G2/M arrest rate at low concentration: OHR-1 7.5 μM, OHR-2 2.5 μM, OHR-3 5 μM, OHR-5 7.5 μM; for G2/M arrest rate at high concentration: OHR-1 15 μM, OHR-2 5 μM, OHR-3 10 μM, OHR-5 15 μM
Experimental: Cells were seeded in 6-well tissue culture plates and treated with DMSO control or different concentration of OHR-1, -2, -3 and -5 for 24 h. Then, the cells were harvested and fixed gently with cold 70% ethanol at −20 °C overnight. Finally, the cells were washed with PBS and re-suspended in 300 μL of propidium iodide (PI) stain solution (20 μg/mL PI and 8 μg/mL DNase-free RNase) for 20 min at room temperature in the dark. The cells were analyzed with a flow cytometry and Mod Fit LT 3.0 software (Variety Software House, Topsham, ME, USA). For each measurement, at least 20,000 cells were counted.

MDA-MB-231 cells [4] = test: Hoechst 33342 staining for apoptosis; conditions: OHR-1 15 μM, OHR-2 5 μM, OHR-3 10 μM, OHR-5 15 μM; 12 h
Experimental: MDA-MB-231 cells were seeded in the flat-bottomed 6-well plates and treated with OHR-1, -2, -3 and -5. Cells treated with solvent vehicle served as controls. In 12 h after treatment, cells were fixed in 4% polyoxymethylene solution for 30 min and then washed with PBS. The fixed cells were incubated with Hoechst 33342 for 15 min at room temperature in the dark and then washed with PBS twice, which were finally observed under a fluorescence microscope (Convert Fluorescence Microsope Axiovert 200, HAL 100, HBO 100, Carl Zeiss MicroImaging Co., Ltd., Oberkochen, Germany) at a magnification of ×400.

[5] = normal human hepatic cells, MTT, 24 h incubation
[6] = L02, normal human hepatic cells, MTT, 24 h incubation
[7] = Homo sapiens, A549, MTT, 24 h incubation
[8] = Homo sapiens, MCF7, MTT, 24 h incubation
[9] = Homo sapiens, MDA-MB-231, MTT, 24 h incubation
[10] = Homo sapiens, HepG2, MTT, 24 h incubation

Row | Molecule | IC50 (LO2 cells; [5]) [µM] | IC50 (A549 cells; MTT, 24 h incubation) | IC50 (MCF-7 cells; MTT, 24 h incubation) [µM] | IC50 (MDA-MB-231 cells [1]; MTT, 24 h incubation) [µM] | IC50 (HepG2 cells; MTT, 24 h incubation) [µM] | IC50 (LO2 cells; [6]) [µM] | IC50 (A549 cells; [7]) [µM] | IC50 (MCF-7 cells; [8]) [µM] | IC50 (MDA-MB-231 cells [1]; [9]) [µM] | IC50 (HepG2 cells; [10]) [µM] | other results
1 | (3S,8S,Z)-3,18-Dihydroxyoctadeca-1,9-dien-4,6-diyn-8-yl acetate [OHR-15] | > 300 | > 300 µM | > 300 | 100 to 300 | > 300 |  |  |  |  |  | antiproliferative effect on A549 cells (in words) (A549 cells): no cytotoxicity; antiproliferative effect on MCF-7 cells (in words) (MCF-7 cells): no cytotoxicity; antiproliferative effect on HepG2 cells (in words) (HepG2 cells): no cytotoxicity
2 | C=C[C@H](O)C#CC#C[C@@H](O)/C=C\CCCCCCCCO [OH-5, (11S,16S,Z)-Octadeca-9,17-dien-12,14-diyne-1,11,16-triol] |  |  |  |  |  | 91 ± 9.5 | 150 to 300 | 94.4 ± 7.3 | 49 ± 10.9 | 48.3 ± 5.9 | 
3 | (3S,8S,Z)-18-Hydroxyoctadeca-1,9-dien-4,6-diyne-3,8-diyl diacetate [OHR-14] | > 300 | > 300 µM | > 300 | 156 ± 35.5 | 150 to 300 |  |  |  |  |  | antiproliferative effect on A549 cells (in words) (A549 cells): no cytotoxicity; antiproliferative effect on MCF-7 cells (in words) (MCF-7 cells): no cytotoxicity; concentration showing some antiproliferative effects on MDA-MB-231 cells (MDA-MB-231 cells [1]): about 150 µM; antiproliferative effect on HepG2 cells (in words) (HepG2 cells): no cytotoxicity
4 | (3S,8S,Z)-Heptadeca-1,9-dien-4,6-diyne-3,8-diyl diacetate [OHR-2] | 32.1 ± 9 | 24.7 ± 5.6 µM | 36.9 ± 4.8 | 4.8 ± 0.5 | 6.6 ± 1.5 |  |  |  |  |  | effect on mitochondrial membrane potential Δψm (JC-1) (MDA-MB-231 cells [2]): decreasing the Δψm; G2/M arrest rate at low concentration (MDA-MB-231 cells [3]): 22.6% ± 2.6%; G2/M arrest rate at high concentration (MDA-MB-231 cells [3]): 30.4% ± 3.1%; induction of apoptosis (Hoechst staining) (MDA-MB-231 cells [4]): induce obvious apoptosis
5 | (11S,16S,Z)-Octadeca-9-en-12,14-diyne-1,11,16-triyl triacetate [OHR-7] | > 300 | > 300 µM | > 300 | > 300 | > 300 |  |  |  |  |  | 
6 | (3S,8S,Z)-3-Hydroxyheptadeca-9-en-4,6-diyn-8-yl acetate [OHR-3] | 31.5 ± 4 | 30.1 µM and 31.4 µM | 25.8 ± 5.8 | 6.6 ± 0.8 | 31.5 ± 2.1 |  |  |  |  |  | A549 cell growth inhibited (A549 cells; at 60 µM, p < 0.01): 90.8%; effect on mitochondrial membrane potential Δψm (JC-1) (MDA-MB-231 cells [2]): decreasing the Δψm; G2/M arrest rate at low concentration (MDA-MB-231 cells [3]): 24.2% ± 2.9%; G2/M arrest rate at high concentration (MDA-MB-231 cells [3]): 25.6% ± 7.5%; induction of apoptosis (Hoechst staining) (MDA-MB-231 cells [4]): induce obvious apoptosis
7 | (11S,16S,Z)-Octadeca-9,17-dien-12,14-diyne-1,11,16-triyl triacetate [OHR-8] | > 300 | > 300 µM | > 300 | 19.6 ± 6.9 | 100 to 300 |  |  |  |  |  | 
8 | (11S,16S,Z)-16-Hydroxyoctadeca-9,17-dien-12,14-diyne-1,11-diyl diacetate [OHR-10] | 100 to 300 | 101 ± 7.3 µM | 94.3 ± 6.1 | 56.7 ± 6.9 | 78.4 ± 6.5 |  |  |  |  |  | 
9 | (3S,8S,Z)-18-Hydroxyoctadeca-9-en-4,6-diyne-3,8-diyl diacetate [OHR-13] | > 300 | > 300 µM | > 300 | 137 ± 28.4 | > 300 |  |  |  |  |  | antiproliferative effect on A549 cells (in words) (A549 cells): no cytotoxicity; antiproliferative effect on MCF-7 cells (in words) (MCF-7 cells): no cytotoxicity; concentration showing some antiproliferative effects on MDA-MB-231 cells (MDA-MB-231 cells [1]): about 150 µM; antiproliferative effect on HepG2 cells (in words) (HepG2 cells): no cytotoxicity
10 | CC[C@H](O)C#CC#C[C@H](/C=C\CCCCCCCCOC(C)=O)OC(C)=O [OHR-12, (11S,16S,Z)-16-Hydroxyoctadeca-9-en-12,14-diyne-1,11-diyl diacetate] |  |  |  |  |  | 100 to 300 | 100 to 300 | 90.7 ± 0.3 | 77.7 ± 1.9 | 100 to 300 | 
11 | C=C[C@@H](C#CC#C[C@@H](O)/C=C\CCCCCCCCOC(C)=O)OC(C)=O [OHR-9] |  |  |  |  |  | 86.2 ± 11.3 | 83.1 ± 8.4 | 81.3 ± 1 | 52 ± 7.5 | 59.9 ± 3 | 
12 | (3S,8S,Z)-Heptadeca-9-en-4,6-diyne-3,8-diyl diacetate [OHR-1] | > 300 | > 300 µM | > 300 | 13.9 ± 3.4 | 115 ± 17.1 |  |  |  |  |  | effect on mitochondrial membrane potential Δψm (JC-1) (MDA-MB-231 cells [2]): decreasing the Δψm; G2/M arrest rate at low concentration (MDA-MB-231 cells [3]): 24.6% ± 3.6%; G2/M arrest rate at high concentration (MDA-MB-231 cells [3]): 31.7% ± 3.2%; induction of apoptosis (Hoechst staining) (MDA-MB-231 cells [4]): induce obvious apoptosis
13 | C=C[C@H](O)C#CC#C[C@@H](O)/C=C\CCCCCCCCOC(C)=O [OH-3, (11S,16S,Z)-11,16-Dihydroxyoctadeca-9,17-dien-12,14-diynyl acetate] |  |  |  |  |  | 90.3 ± 6.4 | 98 ± 6.3 | 93.6 ± 6.1 | 16.5 ± 2.2 | 47.2 ± 5.9 | 
14 | CCCCCCC/C=C\[C@H](O)C#CC#C[C@@H](O)CC [OH-2, (3S,8S,Z)-Heptadeca-9-en-4,6-diyne-3,8-diol] |  |  |  |  |  | 30.2 ± 4.8 | 44.1 ± 9.4 | 27.5 ± 2.2 | 14.7 ± 2.7 | 38.4 ± 7.5 | 
15 | CC[C@H](O)C#CC#C[C@@H](O)/C=C\CCCCCCCCO [OH-6, (11S,16S,Z)-Octadeca-9-en-12,14-diyne-1,11,16-triol] |  |  |  |  |  | 90.8 ± 4 | 85.7 ± 13.2 | 106 ± 13.2 | 55.7 ± 11.8 | 45.3 ± 6.3 | 
16 | C=C[C@H](O)C#CC#C[C@@H](O)/C=C\CCCCCCC [OH-1, (3S,8S,Z)-Heptadeca-1,9-dien-4,6-diyne-3,8-diol] |  |  |  |  |  |  |  |  |  |  | IC50 (LO2 cells; Homo sapiens, L02, 24 h): 8.7 ± 0.5 µM; IC50 (A549 cells; Homo sapiens, A549, 24 h): 23.5 ± 4.1 µM; inhibition at 60 µM (A549 cells; Homo sapiens, A549, read-out: A549 cell growth inhibited): 95.6%; IC50 (MCF-7 cells; Homo sapiens, MCF7, 24 h): 15.3 ± 0.3 µM; IC50 (MDA-MB-231 cells [1]; Homo sapiens, MDA-MB-231, 24 h): 4.7 ± 1.4 µM; IC50 (HepG2 cells; Homo sapiens, HepG2, 24 h): 7.7 ± 1.3 µM
17 | (3S,8S,Z)-8-Hydroxyheptadeca-9-en-4,6-diyn-3-yl acetate [OHR-4] | 34.3 ± 1.5 | 31.4 µM and 33.3 µM | 28 ± 2.9 | 23.4 ± 3.2 | 59.5 ± 3.1 |  |  |  |  |  | 
18 | (3S,8S,Z)-8-Hydroxyheptadeca-1,9-dien-4,6-diyn-3-yl acetate [OHR-6] | 46.1 ± 11.7 |  |  | 36.2 ± 13.4 | 38.5 ± 6.2 |  |  |  |  |  | 
19 | CC[C@H](O)C#CC#C[C@@H](O)/C=C\CCCCCCCCOC(C)=O [OH-4, (11S,16S,Z)-11,16-Dihydroxyoctadeca-9-en-12,14-diynyl acetate] |  |  |  |  |  | 91.9 ± 13.4 | 109.9 ± 0.8 | 100 ± 7 | 87.8 ± 7.9 | 69.1 ± 1.8 | 
20 | (11S,16S,Z)-11-Hydroxyoctadeca-9-en-12,14-diyne-1,16-diyl diacetate [OHR-11] | 93.1 ± 14 | 98.2 ± 17.5 µM | 78.1 ± 3.4 | 51.5 ± 8.4 | 77 ± 9.5 |  |  |  |  |  | 
